*1 amine or outer side, *2 acyl side, *3 side chain or, on linkers, in order; H or OH if unused. Where a SMILES comes first, the peptide text is derived from it. [ ]: non-standard residue; d: D form. X1 = O=C(c1ccc(-c2ccc(N[*:1])cn2)nc1)[*:2]; βAla = NCCC(=O)O
Tested on: NCI/ADR-RES cells
Experiment: ICP-MS internalization study (intracellular Cu accumulation)
Type: cell-based
Conditions: 1 µM compound, 48 h, metallopeptides 1 eq. cyclopeptide + 1 eq. Cu(II)
Protocol: To evaluate the ability of the Cu(II) metallopeptide systems to internalize in cancer cells, ICP-MS studies were performed in NCI/ADR-RES cells after 48 h of incubation with cyclopeptides 1 and 2, as well as their corresponding 1/Cu(II) and 2/Cu(II) metallopeptide derivatives formed by mixing each cyclopeptide with 1 equiv Cu(II), and using CuCl2·2H2O both as a Cu(II) source and a control.
7.1. General methods and materials
ICP Measurements were conducted employing an Agilent 7900 ICP-MS system (Agilent Technologies, Tokyo, Japan). The sample introduction system was comprised of an autosampler, a double-pass spray chamber with Peltier system, a glass concentric nebulizer (MicroMist low-flow nebulizer, Glass Expansion, West Melbourne, Australia), and a quartz torch.
Quantification of copper concentrations was achieved using Agilent ICP-MS MassHunter 5.1, (Version D.01.01 Agilent Technologies, Tokyo, Japan). The parameters for the ICP-MS device were as follows: RF Power, 1550 W; Sample Depth, 8; Carrier Gas, 1.1 L/min; Nebulizer Pump […]
Roswell Park Memorial Institute 1640 medium (RPMI), fetal bovine serum (FBS), penicillin, and streptomycin were purchased from Invitrogen Thermo Fisher.
Ovarian tumour NCI/ADR-RES cells, obtained from the European Collection of Authenticated Cell Cultures (ECACC), were cultured at 37 °C in a 5% CO2 atmosphere in RPMI medium containing 10% FBS and supplemented with 50 U/mL penicillin and 50 U/mL streptomycin, in 75 cm2 cell culture flasks. All cell experiments were performed at 37 °C in a 5% CO 2 atmosphere with this modified RPMI, referred as “medium” or “culture medium”.
7.3. […]
The culture medium was then replaced with 3 mL of fresh medium containing 1 µM of the compound [Cu(II) (CuCl₂·2H₂O), cyclopeptide ( 1 or 2), or metallopeptide system [1/Cu(II) or 2/Cu(II); 1 eq. cyclopeptide + 1 eq. […] Lysates were digested at 95 °C overnight, diluted with 1% HNO₃ to a final volume of 5 mL, and analyzed by ICP-MS. The Cu(II) content in the culture medium (3 mL) was also measured using the same technique, yielding a value of 41.46 ng. […]

For `N=C(N)NCCC[C@@H]1NC(=O)c2ccc(nc2)-c2ccc(cn2)NC(=O)CCNC(=O)[C@H](CCCNC(=N)N)NC(=O)[C@H](CCCNC(=N)N)NC(=O)[C@H](CCCNC(=N)N)NC(=O)c2ccc(nc2)-c2ccc(cn2)NC(=O)CCNC(=O)[C@H](CCCNC(=N)N)NC(=O)[C@H](CCCNC(=N)N)NC1=O` [compound 1, cyclo-(βAlaBpy-Arg3)2] (cyclo([X1]RRR[βAla][X1]RRR[βAla])), which “intracellular Cu(II) accumulation (ICP-MS)” value is on record?
Its value is “notably lower than that of the metallopeptide systems”.

— PMC12128024, “Copper(II) Cyclopeptides with High ROS-Mediated Cytotoxicity” (Bioconjugate Chemistry, 2025)
